Experimental data as given in patent US10968232B2 (Merck Sharp & Dohme Corp., priority 2016, dated 2021).

Molecular target: T1, human GPR40 (Homo sapiens, UniProt O14842)
T1 construct: expressed in transfected cells
Test: Inositol Phosphate Turnover (IP1) Assay
Format: cell-based
Conditions: HEK cells stably expressing human GPR40; CisBio IP-One kit; 60 minutes at 37 degrees; read-out: Human IP1 EC50
In short: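 HEK cells stably expressing GPR40, plated 16 h, then exposed to compound in stimulation buffer for 60 min at 37 °C. IP1 accumulation read by HTRF IP-One detection after 60 min at RT.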

T1 sequence (O14842 whole entry): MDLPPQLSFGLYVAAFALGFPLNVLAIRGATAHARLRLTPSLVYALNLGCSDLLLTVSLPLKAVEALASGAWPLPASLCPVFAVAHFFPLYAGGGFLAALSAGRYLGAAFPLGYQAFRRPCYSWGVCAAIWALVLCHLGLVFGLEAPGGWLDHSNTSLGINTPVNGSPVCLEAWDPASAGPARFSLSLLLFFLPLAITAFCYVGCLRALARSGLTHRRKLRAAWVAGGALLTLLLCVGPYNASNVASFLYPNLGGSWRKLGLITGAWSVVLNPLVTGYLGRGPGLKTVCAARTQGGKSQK

EC50 [nM]	Compound
8.06	C[C@H](C(=O)O)[C@H](c1ccc2c(c1F)OC1(CC2)CCN(Cc2cc(Cl)ccc2OC(F)(F)F)CC1)C1CC1 [Example 4, (2S,3R)-3-(1′-(5-chloro-2-(trifluoromethoxy)benzyl)-8-fluorospiro[chroman-2,4′-piperidin]-7-yl)-3-cyclopropyl-2-methylpropanoic Acid]
8.9	CC(c1cc(Cl)ccc1OC(F)F)N1CCC2(CCc3ccc([C@H](C4CC4)[C@H](C)C(=O)O)c(F)c3O2)CC1 (single isomer, unassigned) [Example 34, (2S,3R)-3-(1′-((S or R)-1-(5-chloro-2-(difluoro-methoxy)phenyl)ethyl)-8-fluorospiro-[chroman-2,4′-piperidin]-7-yl)-3-cyclopropyl-2-methylpropanoic acid]
0.374	C[C@H](C(=O)O)[C@H](c1ccc2c(c1)OC1(CCCN([C@@H](C)c3cc(C(F)(F)F)ccc3C(F)(F)F)C1)CC2)C1CC1 (single isomer, unassigned) [Example 75, (2S,3R)-3-((S or R)-1′-((S)-1-(2,5-bis (trifluoromethyl)phenyl)-ethyl)spiro[chroman-2,3′-piperidin]-7-yl)-3-cyclopropyl-2-methylpropanoic acid]
683	C[C@H](C(=O)O)[C@H](c1ccc2c(c1)OC1(CC2)CCN(c2ccc3c(C(F)(F)F)nn(C)c3c2)CC1)C1CC1 [Example 37, (2S,3R)-3-cyclopropyl-2-methyl-3-(1′-(1-methyl-3-(trifluoromethyl)-1H-indazol-6-yl)spiro[chroman-2,4′-piperidin]-7-yl)-propanoic acid]
2.62	C[C@H](NC1CC2(CCc3ccc([C@H](C4CC4)[C@H](C)C(=O)O)cc3O2)C1)c1cc(C(F)(F)F)ccc1C(F)(F)F (single isomer, unassigned) [Example 94]
